Laboratory results taken from patent US20230055237A1, “COMPOUNDS AND METHODS FOR THE TREATMENT OF CYSTIC FIBROSIS” (Flatley Discovery Lab, LLC, priority 2019, published 2023).

Biological target: T1, CFTR (Homo sapiens, UniProt P13569, DEL508-508)
T1 construct: Primary CF airway epithelial cells were obtained from the UNC Cystic Fibrosis Tissue Procurement and Cell Culture Core; host or cells: primary CF airway epithelial cells, differentiated at the air-liquid interface
Test: Equivalent current assay in primary CF airway epithelial cells (NAUC, combination with 1st site corrector FDL169 or VX-809)
Format: cell-based
Conditions: 37° C., 24 h; for Nauc @ 10 μM: test compound 10 μM in combination with 1st site corrector VX-809 (3 μM)

[1] = test compound 1 μM in combination with 1st site corrector VX-809 (3 μM)
[2] = test compound 3 μM in combination with 1st site corrector VX-809 (3 μM)

T1 sequence (P13569 with tags, fused parts or gaps DEL508-508): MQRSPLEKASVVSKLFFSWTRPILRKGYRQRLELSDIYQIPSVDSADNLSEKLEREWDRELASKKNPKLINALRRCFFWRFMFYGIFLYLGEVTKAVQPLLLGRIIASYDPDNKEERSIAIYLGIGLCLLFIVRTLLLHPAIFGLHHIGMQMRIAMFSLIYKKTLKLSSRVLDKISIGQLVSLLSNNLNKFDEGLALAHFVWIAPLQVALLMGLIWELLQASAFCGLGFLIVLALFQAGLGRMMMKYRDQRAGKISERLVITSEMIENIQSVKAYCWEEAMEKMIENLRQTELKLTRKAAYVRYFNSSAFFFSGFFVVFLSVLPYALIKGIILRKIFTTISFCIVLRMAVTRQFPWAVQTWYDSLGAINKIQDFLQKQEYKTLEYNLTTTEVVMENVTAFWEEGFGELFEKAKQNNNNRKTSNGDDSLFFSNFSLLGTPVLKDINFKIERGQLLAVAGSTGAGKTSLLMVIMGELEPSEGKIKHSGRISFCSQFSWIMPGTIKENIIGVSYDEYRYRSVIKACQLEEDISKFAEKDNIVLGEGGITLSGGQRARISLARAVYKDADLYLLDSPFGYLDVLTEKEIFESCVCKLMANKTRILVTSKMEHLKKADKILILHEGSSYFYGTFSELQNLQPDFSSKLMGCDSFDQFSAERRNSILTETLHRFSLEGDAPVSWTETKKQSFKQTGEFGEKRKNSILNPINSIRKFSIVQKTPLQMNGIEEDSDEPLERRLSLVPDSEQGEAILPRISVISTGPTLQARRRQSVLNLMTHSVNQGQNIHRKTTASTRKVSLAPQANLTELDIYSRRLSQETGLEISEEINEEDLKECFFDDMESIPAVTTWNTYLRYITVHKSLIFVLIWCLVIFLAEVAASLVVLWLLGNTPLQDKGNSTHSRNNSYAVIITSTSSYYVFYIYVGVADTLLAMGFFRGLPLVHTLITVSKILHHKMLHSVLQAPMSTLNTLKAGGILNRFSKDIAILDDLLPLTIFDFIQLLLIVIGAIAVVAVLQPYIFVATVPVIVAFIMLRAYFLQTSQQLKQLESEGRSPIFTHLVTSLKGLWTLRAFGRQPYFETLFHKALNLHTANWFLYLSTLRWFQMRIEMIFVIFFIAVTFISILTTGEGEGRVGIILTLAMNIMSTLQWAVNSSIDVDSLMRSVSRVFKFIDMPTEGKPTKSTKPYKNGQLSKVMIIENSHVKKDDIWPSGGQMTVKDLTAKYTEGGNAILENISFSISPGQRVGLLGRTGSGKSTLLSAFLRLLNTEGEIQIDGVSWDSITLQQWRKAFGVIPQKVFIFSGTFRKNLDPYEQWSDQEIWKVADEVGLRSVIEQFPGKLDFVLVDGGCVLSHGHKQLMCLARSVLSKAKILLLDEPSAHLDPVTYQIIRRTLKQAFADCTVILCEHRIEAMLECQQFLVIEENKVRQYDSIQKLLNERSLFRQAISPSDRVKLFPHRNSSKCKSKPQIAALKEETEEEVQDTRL

| Structure (SMILES) | Nauc @ 1 μM [1] | Nauc @ 3 μM [2] | Nauc @ 10 μM | Nauc @ 1 μM (test compound 1 μM in combination with 1st site corrector FDL169 (3 μM)) | Nauc @ 3 μM (test compound 3 μM in combination with 1st site corrector FDL169 (3 μM)) |
| --- | --- | --- | --- | --- | --- |
| CC(C)(C)c1cccc(C2CC2NC(=O)[C@H]2[C@H]3CC(F)(F)CN3C3(C(=O)Nc4c(Cl)cc(Cl)cc43)[C@H]2C(=O)O)c1 (stereo partly drawn) [Example 272] | + (NAUC “+” refers to an observed NAUC <140% of positive control) | + (NAUC “+” refers to an observed NAUC <140% of positive control) | ++ (NAUC “++” refers to an observed NAUC 170-140% of positive control) | – | – |
| COC(=O)[C@@]1(C)[C@@H](C(=O)N(C)c2cc(Cl)cc(Cl)c2)[C@H]2CC(F)(F)CN2C12C(=O)Nc1c(Cl)cc(Cl)cc12 (stereo partly drawn) [Example 282] | – | – | – | + (NAUC “+” refers to an observed NAUC <140% of positive control) | + (NAUC “+” refers to an observed NAUC <140% of positive control) |
| CCN(C(=O)[C@H]1[C@H]2CC(F)(F)CN2C2(C(=O)Nc3c(Cl)cc(Cl)cc32)[C@H]1C(=O)O)c1cc(Cl)cc(Cl)c1 (stereo partly drawn) [Example 289] | +++ (NAUC “+++” refers to an observed NAUC>170% of positive control) | +++ (NAUC “+++” refers to an observed NAUC>170% of positive control) | +++ (NAUC “+++” refers to an observed NAUC>170% of positive control) | – | – |
| CN(C(=O)[C@H]1[C@H]2CC(F)(F)CN2C2(C(=O)Nc3c(Cl)cc(Cl)cc32)[C@H]1C(=O)O)c1cc(Cl)c(OC(F)F)c(Cl)c1 (stereo partly drawn) [Example 290] | ++ (NAUC “++” refers to an observed NAUC 170-140% of positive control) | +++ (NAUC “+++” refers to an observed NAUC>170% of positive control) | +++ (NAUC “+++” refers to an observed NAUC>170% of positive control) | – | – |
| COc1c(Cl)cc(N(C)C(=O)[C@H]2[C@H]3CC(F)(F)CN3C3(C(=O)Nc4c(Cl)cc(Cl)cc43)[C@H]2C(=O)O)cc1Cl (stereo partly drawn) [Example 291] | + (NAUC “+” refers to an observed NAUC <140% of positive control) | + (NAUC “+” refers to an observed NAUC <140% of positive control) | +++ (NAUC “+++” refers to an observed NAUC>170% of positive control) | – | – |
| CN(C(=O)[C@H]1[C@H]2CC(F)(F)CN2C2(C(=O)Nc3c(Cl)cc(Cl)cc32)[C@H]1C(=O)O)c1cccc(C(F)(F)F)n1 (stereo partly drawn) [Example 292] | ++ (NAUC “++” refers to an observed NAUC 170-140% of positive control) | +++ (NAUC “+++” refers to an observed NAUC>170% of positive control) | +++ (NAUC “+++” refers to an observed NAUC>170% of positive control) | – | – |
| CC(C)(CO)c1cccc(CCNC(=O)[C@H]2[C@H]3CC(F)(F)CN3C3(C(=O)Nc4c(Cl)cc(Cl)cc43)[C@H]2C(=O)O)c1 (stereo partly drawn) [Example 293] | – | – | + (NAUC “+” refers to an observed NAUC <140% of positive control) | – | – |
| CC(C)(C)c1cccc(C2(CNC(=O)[C@H]3[C@H]4CC(F)(F)CN4C4(C(=O)Nc5c(Cl)cc(Cl)cc54)[C@H]3C(=O)O)CC2)c1 (stereo partly drawn) [Example 294] | + (NAUC “+” refers to an observed NAUC <140% of positive control) | +++ (NAUC “+++” refers to an observed NAUC>170% of positive control) | +++ (NAUC “+++” refers to an observed NAUC>170% of positive control) | – | – |
